Source: patent US20250122193A1, “NOVEL PYRIDOCARBAZOLIUM COMPOUNDS AND MEDICAL USES THEREOF” (MyCural Therapeutics, priority 2021, published 2025)

System: p53 expression
Test: p53 expression by western blot
Assay type: cell-based
Conditions: 5 μM, HCT116 and Kelly cells
Procedure: A) Measurement of MYC mRNA expression by RTqPCR after treatment with MYCMI-7 and different topoisomerase inhibitors at indicated concentrations. […] D) Western blot analysis of p53 and p21 expression after exposure to 5 μM MYCMI-7, ellipticine or camptothecin (CPT) in HCT116 cells. E) Western blot analysis of phospho-ATM, total ATM and p53 expression after exposure to indicated concentrations of MYCMI-7 and ellipticine in A375 cells after 3 hrs treatment.
For western blot equal amounts of proteins ([…]) were separated on a 4-12% SDS-PAGE gel. Proteins were transferred to Immobilion-P membrane (Millipore) and detected by immunostaining and chemoluminescence (Immobilion western HRP substrate; Millipore). For immunoprecipitations 500-1000 μg of protein was used. […] Briefly, cells were crosslinked with 1% formaldehyde on ice for 6 minutes. Nuclear chromatin was sonicated on ice to fragments from 0.3 kb to 0.5 kb. Nuclear chromatin equivalent to 2.5×10^7 cells was immunoprecipitated with 2 μg antibody.

Q: What does the source list for `CCN(CC)CC[n+]1ccc2c(C)c3[nH]c4ccccc4c3c(C)c2c1` [MYCMI-7, 2-(5,11-Dimethyl-6H-25-pyrido[4,3-b]carbazol-2-yl)-N,N-diethylethanamine bromide]?
A: p53 expression (early (3 hrs)): no effect; p53 expression (late (24 hrs)): only a minor increase
